# Read-outs that look alike come from different tables or passages of the source.
# Columns and labels:
# [1] = system: Winterweizens Sorte Mironovskaya 808; assay: Field trial of gametocidal activity (anther sterilisation), winter wheat; assay type: in vivo, Weizen; settings: 2% aqueous emulsion, 20 kg/ha; for response vs control in vivo at 20000 g/ha: control = 100, read-out: Prozentsatz des Ansetzens bei freier Bestäubung
# [2] = system: Diploider Roggen Sorte Chulpan; assay: Field trial of gametocidal activity, diploid rye Chulpan; assay type: in vivo; settings: for Anzahl von Körnern der Ähre bei freier Bestäubung / Anzahl von Körnern der Ähre im Isolator / percent sterility at 10000 g/ha: Chulpan, V. or VI. period
# Description: (§1) Bei Weizen und Tritikale werden Einzelisolatoren verwendet.
# Pflanzen von diploidem Roggen Sorte Chulpan werden in der V. oder VI.
# Der Verbrauch an Sterilisationsmitteln beträgt 10 kg/ha.
# [3] = system: Tetraploider Roggen Sorte Belta; assay: Field trial of gametocidal activity, tetraploid rye Belta; assay type: in vivo; settings: 1% aqueous emulsion, 10 kg/ha; for response vs control in vivo at 10000 g/ha: control = 100, read-out: Prozentsatz des Ansetzens bei freier Bestäubung
# Tritikale Sorte PRAG I09 = assay: Field trial of gametocidal activity, triticale; assay type: in vivo; settings: 1% aqueous emulsion, 12 kg/ha; for Prozentsatz des Ansetzens bei freier Bestäubung: control = 100
# Description: as §1
# Pflanzen von Tritikale Sorte PRAG I09 werden in der V. und VI.
# Der Verbrauch an Sterilisationsmittel beträgt 12 kg/ha.
# [4] = system: Hirse Sorte Mironovskoe 94; assay: Field trial of gametocidal activity, millet Mironovskoe 94; assay type: in vivo; settings: 1% aqueous emulsion, 10 kg/ha; for Anzahl von Körnern der Rispe bei freier Bestäubung / Anzahl von Körnern der Rispe im Isolator / percent pollen sterility at 10000 g/ha: V. or VI. period; for percent pollen sterility at 10000 g/ha: read-out: Prozentsatz der Sterilität; for response vs control in vivo at 10000 g/ha: control = 100, read-out: Prozentsatz des Ansetzens bei freier Bestäubung
# in vivo = settings: mouse
# [5] = system: Hirse Sorte K-9693 Kormovoe 1; assay: Field trial of gametocidal activity, millet K-9693 Kormovoe 1; settings: 1% aqueous emulsion, 10 kg/ha
# [6] = system: Diploider Roggen Sorte Gibrid 1864/74; assay: Field trial of gametocidal activity, diploid rye Gibrid 1864/74; settings: 1% aqueous emulsion, 10 kg/ha
# [7] = system: Sommerweizen Sorte Moskovskaya 35; assay: Field trial of gametocidal activity, spring wheat; assay type: in vivo, Weizen; settings: 1% aqueous emulsion; for Anzahl von Körnern der Ähre bei freier Bestäubung / Anzahl von Körnern der Ähre im Isolator / percent sterility at 10000 g/ha / response vs control in vivo at 10000 g/ha: 10 kg/ha; for Anzahl von Körnern der Ähre bei freier Bestäubung / Anzahl von Körnern der Ähre im Isolator / percent sterility at 10000 g/ha: V. period; for percent sterility at 10000 g/ha: read-out: Prozentsatz der Sterilität; for response vs control in vivo / response vs control in vivo at 10000 g/ha: control = 100, read-out: Prozentsatz des Ansetzens bei freier Bestäubung
# [8] = system: Tetraploider Roggen Sorte Ukrainskaya tetra; assay: Field trial of gametocidal activity, tetraploid rye Ukrainskaya tetra; assay type: in vivo; settings: 1% aqueous emulsion, 10 kg/ha; for Anzahl von Körnern der Ähre bei freier Bestäubung / Anzahl von Körnern der Ähre im Isolator / Prozentsatz der Sterilität: V. or VI. period; for Prozentsatz des Ansetzens bei freier Bestäubung: control = 100
# [9] = system: Sonnenblume Sorte Peredovik; assay: Field trial of pollen sterilisation, sunflower Peredovik; assay type: in vivo; settings: 0,2% aqueous emulsion, 1,2 kg/ke (so in the source)
# Description: Pflanzen der Sonnenblume Sorte Peredovik werden in der V. oder VI.
# Der Verbrauch an Sterilisationsmittel beträgt 1,2 kg/ke.
# Sonnenblume Linie VK 119 = assay: Field trial of pollen sterilisation, sunflower line VK 119; settings: 0,2% aqueous emulsion, 1,2 kg/ha
# [10] = system: Tetraploider Roggen Sorte Gibrid 67; assay: Field trial of gametocidal activity, tetraploid rye Gibrid 67; assay type: in vivo; settings: 1% aqueous emulsion, 10 kg/ha; for Anzahl von Körnern der Ähre bei freier Bestäubung / Anzahl von Körnern der Ähre im Isolator: V. or VI. period
# Description: as §1
# Pflanzen von tetraploidem Roggen Sorte Gibrid 67 werden in der V. oder VI.
# Roggen Sorte Voskhod 2 = assay: Field trial of gametocidal activity, diploid rye Voskhod 2; assay type: in vivo; settings: 1% aqueous emulsion, 8 kg/ha
# [11] = system: Tetraploider Roggen Sorte Jubileinaya; assay: Field trial of gametocidal activity, tetraploid rye Jubileinaya; settings: 1% aqueous emulsion, 10 kg/ha; for Prozentsatz des Ansetzens bei freier Bestäubung: control = 100
# [12] = system: Diploider Roggen Sorte Kharkovskaya 55; assay: Field trial of gametocidal activity, diploid rye Kharkovskaya 55; settings: 1% aqueous emulsion, 6 kg/ha
# [13] = V. or VI. period of organogenesis
# [14] = single compounds, 1% aqueous emulsion, 10 kg/ha
# [15] = single compounds, 1% aqueous emulsion, 10 kg/ha, read-out: Prozentsatz der Sterilität
# [16] = read-out: Prozentsatz des Ansetzens bei freier Bestäubung, Chulpan, single compounds, 1% aqueous emulsion, 10 kg/ha, control = 100
smiles,measurement,setting,value
OCCOc1ccc(F)cc1 [Beispiel 2],Anzahl von Körnern der Ähre bei freier Bestäubung,[1]; [13],"27,4"
same,Anzahl von Körnern der Ähre im Isolator,[1]; [13],"0,0"
same,response vs control in vivo at 20000 g/ha,[1],67.7%
same,Anzahl von Körnern der Ähre bei freier Bestäubung,[2]; [14],"48,2"
same,Anzahl von Körnern der Ähre im Isolator,[2]; [14],"0,0"
same,percent sterility at 10000 g/ha,[2]; [15],100%
same,response vs control in vivo at 10000 g/ha,[2]; [16],85%
same,Anzahl von Körnern der Ähre im Isolator,[3]; V. or VI. period,"0,0"
same,response vs control in vivo at 10000 g/ha,[3],92.8%
same,Anzahl von Körnern der Ähre bei freier Bestäubung,Tritikale Sorte PRAG I09; V. and VI. period,"62,3"
same,Anzahl von Körnern der Ähre im Isolator,Tritikale Sorte PRAG I09; V. and VI. period,"0,0"
same,Prozentsatz des Ansetzens bei freier Bestäubung,Tritikale Sorte PRAG I09,"90,3%"
same,Anzahl von Körnern der Rispe bei freier Bestäubung,[4],"311,4"
same,Anzahl von Körnern der Rispe im Isolator,[4],"0,0"
same,percent pollen sterility at 10000 g/ha,[4],100%
same,response vs control in vivo at 10000 g/ha,[4],82%
same,LD50,"in vivo; LD50, weisse Mäuse",350 mg/kg
same,Anzahl von Körnern der Rispe bei freier Bestäubung,[5]; V. or VI. period,"128,7"
same,Anzahl von Körnern der Rispe im Isolator,[5]; V. or VI. period,"0,0"
same,Prozentsatz der Sterilität,[5]; V. or VI. period,100%
same,Prozentsatz des Ansetzens bei freier Bestäubung,[5]; control = 100,"87,7%"
same,Anzahl von Körnern der Ähre bei freier Bestäubung,[6]; V. period,"42,0"
same,Anzahl von Körnern der Ähre im Isolator,[6]; V. period,"0,0"
same,Prozentsatz der Sterilität,[6]; V. period,100%
same,Prozentsatz des Ansetzens bei freier Bestäubung,[6]; control = 100,"87,9%"
"OCC(O)COc1ccc(Cl)cc1 (stereo not drawn) [Beispiel 3, 3-(4'-Chlorphenoxy)-propandiol-1,2]",Anzahl von Körnern der Ähre bei freier Bestäubung,[1]; [13],"28,6"
same,Anzahl von Körnern der Ähre im Isolator,[1]; [13],"0,6"
same,percent sterility at 20000 g/ha,"[1]; V. or VI. period of organogenesis, read-out: Prozentsatz der Sterilität",98.4%
same,response vs control in vivo at 20000 g/ha,[1],70.6%
same,Anzahl von Körnern der Ähre bei freier Bestäubung,[7],"25,8"
same,Anzahl von Körnern der Ähre im Isolator,[7],"0,0"
same,percent sterility at 10000 g/ha,[7],100%
same,response vs control in vivo,[7],93.8%
same,Anzahl von Körnern der Ähre bei freier Bestäubung,[2]; [14],"47,2"
same,Anzahl von Körnern der Ähre im Isolator,[2]; [14],"0,0"
same,percent sterility at 10000 g/ha,[2]; [15],100%
same,response vs control in vivo at 10000 g/ha,[2]; [16],83.2%
same,Anzahl von Körnern der Ähre bei freier Bestäubung,[8],"40,7"
same,Anzahl von Körnern der Ähre im Isolator,[8],"0,0"
same,Anzahl von Körnern der Ähre im Isolator,Tritikale Sorte PRAG I09; V. and VI. period,"0,0"
same,Prozentsatz des Ansetzens bei freier Bestäubung,Tritikale Sorte PRAG I09,"89,0%"
same,Anzahl von Körnern der Rispe bei freier Bestäubung,[4],"284,7"
same,Anzahl von Körnern der Rispe im Isolator,[4],"0,0"
same,percent pollen sterility at 10000 g/ha,[4],100%
same,response vs control in vivo at 10000 g/ha,[4],75%
same,Pollensterilität in %,[9],100%
same,Ansetzen von Achänen bei freier Bestäubung in %,[9]; V. or VI. period,"81,7%"
same,Ansetzen von Achänen im Isolator bei der Bestäubung mit dem Pollengemisch in %,[9]; V. or VI. period,"0,0%"
same,Ansetzen von Achänen bei freier Bestäubung in %,Sonnenblume Linie VK 119,"84,4%"
same,Ansetzen von Achänen im Isolator bei der Bestäubung mit dem Pollengemisch in %,Sonnenblume Linie VK 119,"0,0%"
same,Pollensterilität in %,Sonnenblume Linie VK 119,100%
"OCC(O)CSc1ccccc1F (stereo not drawn) [Beispiel 7, 3-(2'-Fluorphenylthio)-propandiol-I,2]",Anzahl von Körnern der Ähre bei freier Bestäubung,[1]; [13],"36,7"
same,Anzahl von Körnern der Ähre im Isolator,[1]; [13],"0,0"
same,response vs control in vivo at 20000 g/ha,[1],90.6%
same,Anzahl von Körnern der Ähre bei freier Bestäubung,[7],"24,6"
same,Anzahl von Körnern der Ähre im Isolator,[7],"0,0"
same,percent sterility at 10000 g/ha,[7],100%
same,response vs control in vivo,[7],89.5%
same,Anzahl von Körnern der Ähre bei freier Bestäubung,[2]; [14],"53,4"
same,Anzahl von Körnern der Ähre im Isolator,[2]; [14],"0,6"
same,percent sterility at 10000 g/ha,[2]; [15],98.8%
same,response vs control in vivo at 10000 g/ha,[2]; [16],94.2%
same,Anzahl von Körnern der Ähre bei freier Bestäubung,[10],"42,2"
same,Anzahl von Körnern der Ähre im Isolator,[10],"0,0"
same,Prozentsatz des Ansetzens bei freier Bestäubung,[10]; control = 100,"94,4%"
same,Anzahl von Körnern der Rispe bei freier Bestäubung,[4],"300,5"
same,Anzahl von Körnern der Rispe im Isolator,[4],"0,0"
same,percent pollen sterility at 10000 g/ha,[4],100%
same,response vs control in vivo at 10000 g/ha,[4],79.2%
same,LD50,"in vivo; LD50, weisse Mäuse",400 mg/kg
"O=C(O)c1cc(Br)ccc1O [Beispiel 18, Äthanolaminsalz der 5-Bromsalizylsäure]",Anzahl von Körnern der Ähre bei freier Bestäubung,[7],"27,9"
same,Anzahl von Körnern der Ähre im Isolator,[7],"1,8"
same,percent sterility at 10000 g/ha,[7],93.4%
same,response vs control in vivo at 10000 g/ha,[7],102%
same,Prozentsatz der Sterilität,[8],"99,8%"
same,Prozentsatz des Ansetzens bei freier Bestäubung,[8],"94,7%"
same,Anzahl von Körnern der Rispe bei freier Bestäubung,[4],"320,7"
same,Anzahl von Körnern der Rispe im Isolator,[4],"0,0"
same,percent pollen sterility at 10000 g/ha,[4],100%
same,response vs control in vivo at 10000 g/ha,[4],84.5%
"OCC(O)COc1ccccc1F (stereo not drawn) [Beispiel 21, 3-(2'-Fluorophenoxy)-propandiol-1,2]",Anzahl von Körnern der Ähre bei freier Bestäubung,[7],"26,2"
same,Anzahl von Körnern der Ähre im Isolator,[7],"0,1"
same,percent sterility at 10000 g/ha,[7],99.9%
same,response vs control in vivo at 10000 g/ha,[7],95.3%
same,Anzahl von Körnern der Ähre bei freier Bestäubung,Roggen Sorte Voskhod 2; V. or VI. period,"46,8"
same,Anzahl von Körnern der Ähre im Isolator,Roggen Sorte Voskhod 2; V. or VI. period,"0,3"
same,Prozentsatz der Sterilität,Roggen Sorte Voskhod 2; V. or VI. period,"99,4%"
same,Prozentsatz des Ansetzens bei freier Bestäubung,Roggen Sorte Voskhod 2; control = 100,"85,7%"
same,Anzahl von Körnern der Ähre bei freier Bestäubung,[3]; V. or VI. period,"40,7"
same,Anzahl von Körnern der Ähre im Isolator,[3]; V. or VI. period,"0,0"
same,Anzahl von Körnern der Rispe bei freier Bestäubung,[4],"307,5"
same,Anzahl von Körnern der Rispe im Isolator,[4],"0,0"
same,percent pollen sterility at 10000 g/ha,[4],100%
same,response vs control in vivo at 10000 g/ha,[4],81%
same,Anzahl von Körnern der Ähre im Isolator,[11]; V. or VI. period,"0,0"
same,Prozentsatz des Ansetzens bei freier Bestäubung,[11],"97,5%"
"O=C(O)c1ccccc1 [Beispiel 31, Äthanolaminsalz der Benzoesäure]",Anzahl von Körnern der Ähre bei freier Bestäubung,[8],"44,0"
same,Anzahl von Körnern der Ähre im Isolator,[8],"0,8"
same,Prozentsatz der Sterilität,[8],"98,2%"
same,Prozentsatz des Ansetzens bei freier Bestäubung,[8],"99,5%"
same,LD50,in vivo,4100 mg/kg
same,Anzahl von Körnern der Ähre bei freier Bestäubung,[12]; V. and VI. periods,"43,7"
same,Anzahl von Körnern der Ähre im Isolator,[12]; V. and VI. periods,"0,9"
same,Prozentsatz der Sterilität,[12]; V. and VI. periods,"97,9%"
same,Prozentsatz des Ansetzens bei freier Bestäubung,[12]; control = 100,"96,9%"
"O=C(O)c1ccccc1C(=O)O [Beispiel 55, Phthalsäuremonoäthanolaminsalz]",Anzahl von Körnern der Ähre bei freier Bestäubung,[2]; [14],"55,6"
same,Anzahl von Körnern der Ähre im Isolator,[2]; [14],"3,1"
same,pest or weed control at 10000 g/ha,[2]; read-out: Prozentsatz der Sterilität,94%
same,response vs control in vivo at 10000 g/ha,[2]; read-out: Prozentsatz des Ansetzens bei freier Bestäubung,98.1%
same,Anzahl von Körnern der Ähre bei freier Bestäubung,[3]; V. or VI. period,"44,0"
same,Anzahl von Körnern der Ähre im Isolator,[3]; V. or VI. period,"0,3"
same,percent sterility at 10000 g/ha,"[3]; V. or VI. period, read-out: Prozentsatz der Sterilität",99.3%
same,response vs control in vivo at 10000 g/ha,[3],99.3%
same,Anzahl von Körnern der Rispe bei freier Bestäubung,[4],"350,9"
same,Anzahl von Körnern der Rispe im Isolator,[4],"0,0"
same,percent pollen sterility at 10000 g/ha,[4],100%
same,response vs control in vivo at 10000 g/ha,[4],92.5%
same,LD50,in vivo,1100 mg/kg
same,Anzahl von Körnern der Ähre bei freier Bestäubung,[11]; V. or VI. period,"46,0"
same,Anzahl von Körnern der Ähre im Isolator,[11]; V. or VI. period,"0,0"
same,Prozentsatz des Ansetzens bei freier Bestäubung,[11],"95,0%"
"O=C(O)c1ccccc1O [Beispiel 62, Äthanolaminsalz der Salizylsäure]",Anzahl von Körnern der Ähre bei freier Bestäubung,[10],"40,8"
same,Anzahl von Körnern der Ähre im Isolator,[10],"0,0"

# From patent EP0359821A1, “METHOD OF STERILIZING PLANT ANTHERS” (priority 1988, dated 1989)
